# From patent US11304964B2, “Bolaamphiphilic compounds, compositions and uses thereof” (priority 2012, dated 2022)
# Key:
# [1] = Tenofovir encapsulation in bolaamphiphile vesicles (UV absorbance after Sephadex G50 separation); format: physicochemical
# Procedure: Bolaamphiphiles, cholesterol, and CHMES (2:1:1 mole ratio) are dissolved in chloroform or a suitable solvent. […] The solvents are evaporated under vacuum and the resultant thin films are hydrated in 0.2 mg/mL CF solution in PBS and probe-sonicated (Vibra-Cell VCX130 sonicator, Sonics and Materials Inc., Newtown, Conn., USA) with amplitude 20%, pulse on: 15 sec, pulse off: 10 sec to achieve homogenous vesicle dispersions. Vesicle size and zeta potential were determined using a Zetasizer Nano ZS (Malvern Instruments, UK).
# Methods were established to determine quantitatively the amount of the encapsulated tenofovir based on a UV absorption and determined the percent of tenofovir encapsulation by various vesicle formulations (data not shown). […] One objective of this work was to achieve the maximum amount of tenofovir encapsulated per vesicle along with a minimum loss of the non-encapsulated drug. Accordingly, several parameters were examined, such as varying the ratio among the vesicle components, changing the ratio of tenofovir to bolaamphiphiles, varying the pH of the hydration solution and also adding to the formulation additional additives, in the attempt to increase the encapsulation capacity of the vesicles.
# In particular, in order to maximize tenofovir encapsulation the following parameters were studied: (1) tenofovir to GLH ratio; (2) adjusting the concentrations of cholestyrl hemisuccinate (CHEM) and cholesterol (CHOL), components that are used in the vesicle formulation, (3) examining several buffers and pHs in the encapsulation process, (4) time of sonication, and (5) tenofovir concentration, and (6) addition of stearyl amine to the vesicle formulation to enhance encapsulation by complexation with tenofovir.
# The vesicles were prepared from formulations with and without SA and the non-encapsulated tenofovir (free tenofovir) was separated from the encapsulated tenofovir on Sephadex G50 column and the absorbance at 260 nm of each fraction collected from the column was read.
# [2] = Tenofovir concentration in brain after i.v. tenofovir-loaded vesicles (HPLC-UV of brain homogenate); format: in vivo, mice
# Excerpt: Protein precipitation was accomplished by adding trichloroacetic acid (TCA) at a final concentration of 3.75%, providing a clear supernatant by centrifugation. This supernatant was neutralized by 1% sodium hydroxide solution and the neutralized extract was examined by HPLC with a UV detector, using an isocratic method with 10% aceto-nitrile and 90% buffer of triethyl amine in water adjusted to pH 5.4 with concentrated phosphoric acid. When applied to a solution of tenofovir in buffer without the brain extract, the retention time was 17.3 min (FIG. 8 Panel A). […] The broad peak at 22.5 min overlapped the peak of the tenofovir at 17 min (compare FIG. 8 Panel B to FIG. 8 Panel A) and would interfere with the determination of tenofovir concentration in the extract. To narrow the peak of the endogenous compound with the Rt of 22.5 min, a solid phase extraction (SPE) method was employed, using BOND ELUT-C18 column. After the treatment with SPE some peaks disappeared and the others became narrower.
# Different concentrations of tenofovir were then spiked into a supernatant obtained after deproteinization of brain homogenate with TCA and centrifugation. The supernatant with the tenofovir was loaded into the SPE cartridge, which was conditioned by 3 ml methanol and 3 ml of 150 mM ammonium acetate (pH=5.0). After washing with 900 μl of 100 mM ammonium acetate (pH=7.0), in order to obtain less interference at the retention time of each component, the column was eluted by 500 μl of methanol to collect the tenofovir. The solvent was removed under nitrogen at 60° C. The extracted sample was dissolved into 120 μl of water and methanol solution (90:10, v/v) and injected into the HPLC.
# In view of the conditions for the determination of tenofovir in brain homogenates established herein, mice were injected with 7.5 mg/kg of tenofovir encapsulated in vesicles prepared as for Table 5 above that contained the optimal GLH-55b and SA and brain homogenates were prepared from the brains of these mice for the determination of tenofovir concentrations. […] This concentration value is significant and should have a therapeutic affect against HIV.
# A subsequent in vivo experiment was carried out as above but with testing over different periods of time from of 15 min, 30 min, 60 min and 120 min after IV injection the amount of tenofovir was in micro gr/grm brain 6.2, 2.2, 1.0 and 0.5 respectively. While the free tenofovir injected had levels of 0 less than 0.2 micrograms/gr brain. Thus indicating the efficacy of the vesicles to delivery tenofovir to the brain.
# [3] = CNS penetration effectiveness index; cited from earlier work
# [4] = human subjects treated orally with 300 mg tenofovir; cited from earlier work
# [5] = Pharmacokinetic studies, first set (LC-MS, blood and brain); details: for half-life: mouse, iv, 34 mg/kg
# Procedure: The chromatographic separation was performed with an HPLC Agilent 1100 instrument and Auto-sampler G 1329A ALS 1200 Series with Frizzier G1330B FC/ALS Therm, at a temperature of 4° C., using a reverse phase Kromasile 100A C18 250×2.0 (5 μm) column at 30° C. under gradient conditions. The mobile phase consisted of two solvents: (A) acetonitrile and (B) 0.5% formic acid in water and was operated under the following conditions:
# The MS/MS detector was an Ion Trap MS Esquire 3000 Plus (Bruker Daltonics), operating in the ESI positive polarity mode. The internal standard was 2′-deoxyadenosine 5′-phosphate.
# After establishing conditions for the LC-MS as described above, brain homogenate and blood samples were prepared and spiked known concentrations of tenofovir and a fixed concentration of the internal standard into the blood samples and the brain homogenates. The specimens were then processed by adding 180 μL of 10% Tri Chloro Acetic acid (TCA) to 300 μL of the homogenate followed by centrifugation to obtain a clear solution of blood or brain extracts. The supernatant that was obtained by the centrifugation was neutralized with 200 μL of 1% NaOH. The MS signals that were obtained from each sample were plotted as a function of the spiked tenofovir concentration to obtain calibration curves for the blood (FIG. 17A) and for the brain (FIG. 17B).
# For the PK studies, vesicles optimized as described above were used for the delivery of tenofovir into the brain. […] The vesicles were prepared by film hydration followed by sonication using a HEPES hydration buffer.
# In the first set of the PK experiments, mice (average weight was 22 g per mouse) were injected with vesicles that contained encapsulated tenofovir or with empty vesicles followed by free tenofovir (4 mice per group). […] The dose of the total tenofovir was 34 mg/kg, out of which 6.8 mg/kg was encapsulated (only when encapsulated tenofovir was injected). […] Before the injection of the test material, mice were pretreated with 0.5 mg/kg pyridostigmine to inhibit choline esterases in the blood (unless otherwise stated), since vesicles that contain GLH-20 release their content in presence of choline esterases. At various times after the injection (15, 30, 75, 120 and 240 min), blood samples were withdrawn and the mice were perfused with 10 mL PBS and sacrificed. Brains were immediately removed after sacrificing the mice and brain homogenates were prepared by homogenizing the brains in PBS (4 mL PBS per gram brain). Extracts of the homogenates were then prepared by adding 180 μL of 10% TCA to 300 μL of the homogenate followed by centrifugation to obtain a clear solution of the brain extract. The supernatant that was obtained by the centrifugation was neutralized with 200 μL of 1% NaOH. Tenofovir concentration in the clear brain extract was determined by LC-MS, using the calibration curve which is described above in FIG. 17. The blood samples were centrifuged to separate the serum from the blood cells and processed in the same way as the brain homogenates.
# [6] = HEPES pH 7.5, GLH 19/20 (2:1) 10 mg/ml, SA 1.25 mg/ml, tenofovir 5 mg/ml, standard CHOL/CHEMS
# [7] = HEPES pH 7.5, GLH 19/20 (2:1) 10 mg/ml, SA 2.5 mg/ml, tenofovir 5 mg/ml, standard CHOL/CHEMS
# [8] = HEPES pH 7.5, GLH 19/20 (2:1) 10 mg/ml, SA 3.5 mg/ml, tenofovir 5 mg/ml, standard CHOL/CHEMS
# [9] = HEPES pH 7.5, GLH 19/20 (2:1) 10 mg/ml, tenofovir 1 mg/ml, standard CHOL/CHEMS
# [10] = HEPES pH 7.5, GLH 19/20 (2:1) 10 mg/ml, tenofovir 2 mg/ml, ½ the standard amount of cholesterol and cholesteryl hemisuccinate
# [11] = HEPES pH 7.5, GLH 19/20 (2:1) 15 mg/ml, SA 2.5 mg/ml, tenofovir 5 mg/ml, standard CHOL/CHEMS
# [12] = HEPES pH 7.5, GLH 19/20 (2:1) 15 mg/ml, tenofovir 1 mg/ml, standard CHOL/CHEMS
# [13] = HEPES pH 7.5, GLH 19/20 (2:1) 15 mg/ml, tenofovir 2 mg/ml, ½ the standard amount of cholesterol and cholesteryl hemisuccinate
# [14] = HEPES pH 8, GLH 19/20 (2:1) 15 mg/ml, SA 2.5 mg/ml, tenofovir 5 mg/ml, standard CHOL/CHEMS
# [15] = HEPES pH 8, GLH 19/20 (2:1) 15 mg/ml, tenofovir 1 mg/ml, standard CHOL/CHEMS
# [16] = TRIS pH 8, GLH 19/20 (2:1) 10 mg/ml, SA 2.5 mg/ml, tenofovir 5 mg/ml, standard CHOL/CHEMS
# [17] = TRIS pH 8, GLH 19/20 (2:1) 10 mg/ml, tenofovir 1 mg/ml, standard CHOL/CHEMS
# [18] = TRIS pH 8, GLH 19/20 (2:1) 10 mg/ml, tenofovir 2 mg/ml, standard CHOL/CHEMS
# [19] = TRIS pH 8, GLH 19/20 (2:1) 10 mg/ml, tenofovir 5 mg/ml, standard CHOL/CHEMS
# [20] = TRIS pH 8, GLH 19/20 (2:1) 20 mg/ml, tenofovir 5 mg/ml, standard CHOL/CHEMS
structure (smiles),measurement,setting,value
"C[C@H](Cn1cnc2c(N)ncnc21)OCP(=O)(O)O [tenofovir, ({[(2R)-1-(6-amino-9H-purin-9-yl)propan-2-yl]oxy}methyl)phosphonic acid]",% tenofovir encapsulation,[1]; [6],15.9%
same,Ratio of tenofovir encapsulated to bolaamphiphiles,[1]; [6],0.062 mg/mg
same,% tenofovir encapsulation,[1]; [7],21.4%
same,Ratio of tenofovir encapsulated to bolaamphiphiles,[1]; [7],0.107 mg/mg
same,% tenofovir encapsulation,"[1]; HEPES pH 7.5, GLH 19/20 (2:1) 10 mg/ml, SA 2.5 mg/ml, tenofovir 5 mg/ml, ½ the standard amount of cholesterol and cholesteryl hemisuccinate",**22%
same,% tenofovir encapsulation,[1]; [8],30.9%
same,Ratio of tenofovir encapsulated to bolaamphiphiles,[1]; [8],0.155 mg/mg
same,% tenofovir encapsulation,[1]; [9],17.4%
same,mg tenofovir encapsulated/mg bola,[1]; [9],0.026 mg tenofovir encapsulated/mg bola
same,mg tenofovir encapsulated/mg bola,"[1]; HEPES pH 7.5, GLH 19/20 (2:1) 10 mg/ml, tenofovir 2 mg/ml, standard CHOL/CHEMS",0.024 mg tenofovir encapsulated/mg bola
same,% tenofovir encapsulation,[1]; [10],**16.5%
same,mg tenofovir encapsulated/mg bola,[1]; [10],**0.033 mg tenofovir encapsulated/mg bola
same,% tenofovir encapsulation,"[1]; HEPES pH 7.5, GLH 19/20 (2:1) 10 mg/ml, tenofovir 5 mg/ml, standard CHOL/CHEMS",7.8%
same,% tenofovir encapsulation,"[1]; HEPES pH 7.5, GLH 19/20 (2:1) 10 mg/ml, tenofovir 7.5 mg/ml, standard CHOL/CHEMS",3.8%
same,% tenofovir encapsulation,[1]; [11],18.6%
same,Ratio of tenofovir encapsulated to bolaamphiphiles,[1]; [11],0.08 mg/mg
same,% tenofovir encapsulation,[1]; [12],38.6%
same,mg tenofovir encapsulated/mg bola,[1]; [12],0.026 mg tenofovir encapsulated/mg bola
same,% tenofovir encapsulation,"[1]; HEPES pH 7.5, GLH 19/20 (2:1) 15 mg/ml, tenofovir 2 mg/ml, standard CHOL/CHEMS","18.4, %"
same,% tenofovir encapsulation,[1]; [13],**22.5%
same,mg tenofovir encapsulated/mg bola,[1]; [13],**0.033 mg tenofovir encapsulated/mg bola
same,% tenofovir encapsulation,[1]; [14],23%
same,Ratio of tenofovir encapsulated to bolaamphiphiles,[1]; [14],0.077 mg/mg
same,% tenofovir encapsulation,[1]; [15],31.2%
same,mg tenofovir encapsulated/mg bola,[1]; [15],0.021 mg tenofovir encapsulated/mg bola
same,% tenofovir encapsulation,"[1]; TRIS pH 8, GLH 19/20 (2:1) 5 mg/ml, tenofovir 1 mg/ml in hydration solution, standard CHOL/CHEMS",4%
same,mg tenofovir encapsulated/mg bola,"[1]; TRIS pH 8, GLH 19/20 (2:1) 5 mg/ml, tenofovir 1 mg/ml, standard CHOL/CHEMS",0.008 mg tenofovir encapsulated/mg bola
same,% tenofovir encapsulation,[1]; [16],12.7%
same,Ratio of tenofovir encapsulated to bolaamphiphiles,[1]; [16],0.064 mg/mg
same,% tenofovir encapsulation,[1]; [17],11%
same,mg tenofovir encapsulated/mg bola,[1]; [17],0.011 mg tenofovir encapsulated/mg bola
same,% tenofovir encapsulation,[1]; [18],9%
same,mg tenofovir encapsulated/mg bola,[1]; [18],0.018 mg tenofovir encapsulated/mg bola
same,% tenofovir encapsulation,[1]; [19],6%
same,mg tenofovir encapsulated/mg bola,[1]; [19],0.03 mg tenofovir encapsulated/mg bola
same,mg tenofovir encapsulated/mg bola,"[1]; TRIS pH 8, GLH 19/20 (2:1) 15 mg/ml, tenofovir 1 mg/ml, standard CHOL/CHEMS",0.016 mg tenofovir encapsulated/mg bola
same,% tenofovir encapsulation,"[1]; TRIS pH 8, GLH 19/20 (2:1) 15 mg/ml, tenofovir 1 mg/ml, standard CHOL/CHEMS, ±SEM",24.5 ± 2.1%
same,mg tenofovir encapsulated/mg bola,"[1]; TRIS pH 8, GLH 19/20 (2:1) 15 mg/ml, tenofovir 2 mg/ml, standard CHOL/CHEMS",0.03 mg tenofovir encapsulated/mg bola
same,% tenofovir encapsulation,"[1]; TRIS pH 8, GLH 19/20 (2:1) 15 mg/ml, tenofovir 2 mg/ml, standard CHOL/CHEMS, ±SEM",21 ± 2.1%
same,mg tenofovir encapsulated/mg bola,"[1]; TRIS pH 8, GLH 19/20 (2:1) 15 mg/ml, tenofovir 5 mg/ml, standard CHOL/CHEMS",0.03 mg tenofovir encapsulated/mg bola
same,% tenofovir encapsulation,"[1]; TRIS pH 8, GLH 19/20 (2:1) 15 mg/ml, tenofovir 5 mg/ml, standard CHOL/CHEMS, ±SEM",9 ± 1.4%
same,mg tenofovir encapsulated/mg bola,"[1]; TRIS pH 8, GLH 19/20 (2:1) 20 mg/ml, tenofovir 1 mg/ml, standard CHOL/CHEMS",0.02 mg tenofovir encapsulated/mg bola
same,% tenofovir encapsulation,"[1]; TRIS pH 8, GLH 19/20 (2:1) 20 mg/ml, tenofovir 1 mg/ml, standard CHOL/CHEMS, ±SEM",31.4 ± 4.5%
same,mg tenofovir encapsulated/mg bola,"[1]; TRIS pH 8, GLH 19/20 (2:1) 20 mg/ml, tenofovir 2 mg/ml, standard CHOL/CHEMS",0.022 mg tenofovir encapsulated/mg bola
same,% tenofovir encapsulation,"[1]; TRIS pH 8, GLH 19/20 (2:1) 20 mg/ml, tenofovir 2 mg/ml, standard CHOL/CHEMS, ±SEM",22.5 ± 3.5%
same,% tenofovir encapsulation,[1]; [20],9.3%
same,mg tenofovir encapsulated/mg bola,[1]; [20],0.023 mg tenofovir encapsulated/mg bola
same,% of the added tenofovir encapsulated,"[1]; optimal formulation for PK: 10 mg GLH 19/20 2/1, 1 mg GLH-55b, 2.5 mg stearyl amine, 5 mg tenofovir per mL, HEPES",20%
same,amount of the encapsulated tenofovir,[1]; optimal formulation used in first set of PK experiments,1 mg/mL vesicles
same,percent of tenofovir encapsulation,"[1]; various vesicle formulations, conditions that yielded maximum encapsulation (before optimization)",18-20%
same,concentration of tenofovir in the brain,"[2]; mice i.v., 7.5 mg/kg tenofovir encapsulated in vesicles with GLH-55b and SA, estimated from calibration curve",22.7 μg/gr brain
same,level of tenofovir in brain,"[2]; mice, free tenofovir injected IV",less than 0.2 micrograms/gr brain
same,concentration at 15 min,"[2]; mouse, brain, 7.5 mg/kg, mice, encapsulated tenofovir in vesicles, 15 min after IV injection, read-out: amount of tenofovir in brain",6200 ng/g
same,concentration at 30 min,"[2]; mouse, brain, 7.5 mg/kg, mice, encapsulated tenofovir in vesicles, 30 min after IV injection, read-out: amount of tenofovir in brain",2200 ng/g
same,concentration at 60 min,"[2]; mouse, brain, 7.5 mg/kg, mice, encapsulated tenofovir in vesicles, 60 min after IV injection, read-out: amount of tenofovir in brain",1000 ng/g
same,concentration at 120 min,"[2]; mouse, brain, 7.5 mg/kg, mice, encapsulated tenofovir in vesicles, 120 min after IV injection, read-out: amount of tenofovir in brain",500 ng/g
same,CPE rating,[3],1
same,blood concentration of tenofovir,[4],about 500 ng/ml
same,tenofovir concentration in the brain,[5]; mice injected with empty vesicles and then free tenofovir,not detected
same,half-life,"[5]; brain, apparent half-life of tenofovir in the brain, mice pretreated with pyrido, tenofovir encapsulated in GLH-19 + GLH-20 vesicles, i.v.",~40 min
same,half-life,"[5]; serum, actual half-life of the encapsulated tenofovir in the blood, inferred, encapsulated tenofovir only 20% of injected",> 20 min
same,half-life,"[5]; serum, half-life of tenofovir in the blood (apparent), mice i.v., total tenofovir 34 mg/kg of which 6.8 mg/kg encapsulated, reflects free and encapsulated tenofovir",~20 min
same,persistence of tenofovir in the brain,"[5]; tenofovir encapsulated in GLH-19 vesicles, i.v. mice",did not persist long in the brain
